From US20260098019A1, “SYNTHESIS OF NSAID CONJUGATES AS ANTI-INFLAMMATORY AGENTS USING THE MOLECULAR HYBRIDIZATION” (AUGUSTA UNIVERSITY RESEARCH INSTITUTE, INC., priority 2022, published 2026)
Marks after values point to notes of the source that are not given here.

Tests used:
hot plate latency = experiment: hot plate test (central analgesic); type: in vivo, albino mice; conditions: for Observed property: % Protection central analgesic (120 min); for Latency period ± SE: 10 mg/kg indomethacin mol equivalent i.p., cutoff 15 seconds; for % Protection: vs control; for Potency: at 120 min. compared to indomethacin
Procedure: An in vivo standard hot plate test was performed. […] The control group animals were given sterile/distilled water with few drops of Tween 80. The maximum cutoff time was 15 seconds to prevent tissue damage. Response latencies were measured at 30, 60, 90 and 120 inns. The % protection was calculated by equ. (5), where, Ti, To are the latency time mean of the tested compound and control group respectively (Table 3).

[1] = system: acetic acid-induced writhing; experiment: acetic acid-induced writhing test (peripheral analgesic); type: in vivo, albino mice; conditions: for 1/(observed property): 1/(% inhibition) peripheral analgesic; for Observed property: % inhibition/protection peripheral analgesic; for Potency: % inhibition/protection compared to indomethacin; for Writing reflex ± SE: number of writhing counted for 30 min; for Writing reflex ± SE / % Inhibition/protection: 10 mg/kg indomethacin mol equivalent i.p.; for % Inhibition/protection: vs control
Procedure: Peripheral analgesic activity was measured by the standard acetic acid-induced writhing test in mice. […] One hour after the i.p. administration, each mouse was injected with 0.1 ml of 1% acetic acid solution i.p. The control group animals were given sterile/distilled water with few drops of Tween 80. Starting 5 min after the acetic acid injection, the number of muscular contractions in each mouse was counted for 30 min. A significant reduction in the number of writhing by a conjugate compared with control animals was considered as a positive analgesic response. Percentage protection was calculated according to equ. (3), where n is the average number of writhing in the control group and n′ is the average number of writhing in the treated group. The % potency was calculated by equ. (4) (Table 2).

## COc1ccc2c(c1)c(CC(=O)OCc1cn(-c3ccc(C)cc3)nn1)c(C)n2C(=O)c1ccc(Cl)cc1 [Compound 8d, (1-(p-Tolyl)-1H-1,2,3-triazol-4-yl)methyl 2-(1-(4-chlorobenzoyl)-5-methoxy-2-methyl-1H-indol-3-yl)acetate]
Hot plate latency
  Observed property: 48.6
[1]
  1/(observed property): 0.016
  Observed property: 62.5

## CC(C)Cc1ccc(C(C)C(=O)OCc2cn(-c3ccc(F)cc3)nn2)cc1 (stereo not shown) [Compound 5c, (1-(4-Fluorophenyl)-1H-1,2,3-triazol-4-yl)methyl 2-(4-isobutylphenyl)propanoate]
Hot plate latency
  Observed property: 18
Hot plate latency; at 30 min
  % protection compared with parent compound ibuprofen: 1.8 folds
[1]
  1/(observed property): 0.01201
  Observed property: 83.3

## CC(C)Cc1ccc(C(C)C(=O)OCc2cn(-c3ccc([N+](=O)[O-])cc3)nn2)cc1 (stereo not shown) [Compound 5g, (1-(4-Nitrophenyl)-1H-1,2,3-triazol-4-yl)methyl 2-(4-isobutylphenyl)propanoate]
Hot plate latency
  Observed property: 28.1
[1]
  1/(observed property): 0.01538
  Observed property: 65.0

## C#CCOC(=O)Cc1c(C)n(C(=O)c2ccc(Cl)cc2)c2ccc(OC)cc12 [Compound 7, prop-2-yn-1-yl 2-(1-(4-chlorobenzoyl)-5-methoxy-2-methyl-1H-indol-3-yl) acetate]
Hot plate latency; After 30 min.
  Latency period ± SE: 6.68 s
  % Protection: 2.0* (0.0) %
Hot plate latency; After 60 min.
  Latency period ± SE: 9.54 ± 1.6 s
  % Protection: (31.2) %
Hot plate latency; After 90 min.
  Latency period ± SE: 11.18 ± 1.5 s
  % Protection: (25.5) %
Hot plate latency; After 120 min.
  Latency period ± SE: 10.78 ± 1.8 s
  % Protection: (19.6) %
Hot plate latency
  Potency: 34.7%
[1]
  Potency: 124.4%
  Writing reflex ± SE: 4.3 ± 0.5
  % Inhibition/protection: 89.3%

## COc1ccc2c(c1)c(CC(=O)OCc1cn(-c3ccccc3Cl)nn1)c(C)n2C(=O)c1ccc(Cl)cc1 [Compound 8a, (1-(2-Chlorophenyl)-1H-1,2,3-triazol-4-yl)methyl 2-(1-(4-chlorobenzoyl)-5-methoxy-2-methyl-H-indol-3-yl)acetate]
Hot plate latency
  Observed property: 51.3
  Potency: 90.8%
Hot plate latency; After 30 min.
  Latency period ± SE: 12.19 s
  % Protection: (82.5) %
Hot plate latency; After 60 min.
  Latency period ± SE: 13.51 s
  % Protection: 1.7** (85.8) %
Hot plate latency; After 90 min.
  Latency period ± SE: 13.85 ± 1.4 s
  % Protection: (55.4) %
Hot plate latency; After 120 min.
  Latency period ± SE: 13.63 ± 1.3 s
  % Protection: (51.3) %
[1]
  1/(observed property): 0.02028
  Potency: 68.7%
  Observed property: 49.3
  Writing reflex ± SE: 20.3 ± 1.8
  % Inhibition/protection: 49.3%

## COc1ccc(-n2cc(COC(=O)C(C)c3ccc(CC(C)C)cc3)nn2)cc1 (stereo not shown) [Compound 5f, (1-(4-Methoxyphenyl)-1H-1,2,3-triazol-4-yl)methyl 2-(4-isobutylphenyl)propanoate]
Hot plate latency
  Observed property: 0.2
[1]
  1/(observed property): 0.0125
  Observed property: 80.0

## COc1ccc2c(c1)c(CC(=O)OCc1cn(-c3ccc(Cl)cc3)nn1)c(C)n2C(=O)c1ccc(Cl)cc1 [Compound 8b, (1-(4-Chlorophenyl)-1H-1,2,3-triazol-4-yl)methyl 2-(1-(4-chlorobenzoyl)-5-methoxy-2-methyl-1H-indol-3-yl)acetate]
Hot plate latency
  Observed property: 9.7
[1]
  1/(observed property): 0.0216
  Observed property: 46.3

## COc1ccc2c(c1)c(CC(=O)OCc1cn(-c3ccc(F)cc3)nn1)c(C)n2C(=O)c1ccc(Cl)cc1 [Compound 8c, (1-(4-Fluorophenyl)-1H-1,2,3-triazol-4-yl)methyl 2-(1-(4-chlorobenzoyl)-5-methoxy-2-methyl-1H-indol-3-yl)acetate]
Hot plate latency
  Observed property: 48.1
[1]
  1/(observed property): 0.02421
  Observed property: 41.3

## COc1ccc2c(c1)c(CC(=O)OCc1cn(-c3ccccc3OC)nn1)c(C)n2C(=O)c1ccc(Cl)cc1 [Compound 8e, (1-(2-Methoxyphenyl)-1H-1,2,3-triazol-4-yl)methyl 2-(1-(4-chlorobenzoyl)-5-methoxy-2-methyl-1H-indol-3-yl)acetate]
Hot plate latency
  Observed property: 28.9
[1]
  1/(observed property): 0.01238
  Observed property: 80.8
